Source: ChEMBL document CHEMBL4732239, “Novel molecule combinations and corresponding hybrids targeting artemisinin-resistant Plasmodium falciparum parasites” (Bioorg Med Chem Lett, 2021)
pIC50: −log10 of the molar value.

Key:
[1] = tested on: Plasmodium falciparum; test: Antimalarial activity against Plasmodium falciparum assessed as difference of time taken for recrudescence Plasmodium falciparum […] between ring stage artemisinin-sensitive Plasmodium falciparum F32-TEM measured at 7 uM after 48 hrs; format: functional
[2] = Selective index, ratio of CC50 for African green monkey Vero cells to IC50 for plasmodium falciparum
[3] = tested on: Plasmodium falciparum; test: Antimalarial activity against ring stage artemisinin-resistant Plasmodium falciparum F32-ART5 assessed as time taken for recrudescence by measuring parasitemia at 7 uM after 48 hrs; format: functional
[4] = tested on: Plasmodium falciparum; test: Antimalarial activity against artemisinin-sensitive Plasmodium falciparum F32-TEM by SYBR green dye based fluorescence assay; format: functional, organism-based
[5] = Cytotoxicity against African green monkey Vero cells assessed as inhibition of cell proliferation; format: cell-based; settings: chlorocebus sabaeus
[6] = tested on: Plasmodium falciparum; test: Antimalarial activity against ring stage artemisinin-sensitive Plasmodium falciparum F32-TEM assessed as time taken for recrudescence by measuring parasitemia at 7 uM after 48 hrs; format: functional
[7] = tested on: Plasmodium falciparum; test: Antimalarial activity against ring stage artemisinin-sensitive Plasmodium falciparum F32-TEM assessed as time taken for recrudescence by measuring parasitemia at 1 uM after 48 hrs; format: functional
[8] = tested on: Plasmodium falciparum; test: Antimalarial activity against Plasmodium falciparum assessed as difference of time taken for recrudescence Plasmodium falciparum F32-ART5 between ring stage artemisinin-sensitive Plasmodium falciparum F32-TEM measured at 1 uM after 48 hrs
[9] = tested on: Plasmodium falciparum; test: Antimalarial activity against ring stage artemisinin-resistant Plasmodium falciparum F32-ART5 assessed as time taken for recrudescence by measuring parasitemia pretreated with dihydroartemisinin for 6 hrs followed by treated at 7 uM for 48 hrs by Quiescent-stage Survival Assay; format: functional
[10] = tested on: Plasmodium falciparum; test: Antimalarial activity against ring stage artemisinin-resistant Plasmodium falciparum F32-ART5 assessed as time taken for recrudescence by measuring parasitemia at 20 uM after 48 hrs; format: functional
[11] = tested on: Plasmodium falciparum; test: Antimalarial activity against ring stage artemisinin-sensitive Plasmodium falciparum F32-TEM assessed as time taken for recrudescence by measuring parasitemia at 20 uM after 48 hrs; format: functional
[12] = tested on: Plasmodium falciparum; test: Antimalarial activity against Plasmodium falciparum assessed as difference of time taken for recrudescence Plasmodium falciparum […] between ring stage artemisinin-sensitive Plasmodium falciparum F32-TEM measured at 20 uM after 48 hrs; format: functional
[13] = tested on: Plasmodium falciparum; test: Antimalarial activity against Plasmodium falciparum assessed as difference of time taken for recrudescence Plasmodium falciparum […] between ring stage artemisinin-sensitive Plasmodium falciparum F32-TEM measured at 18 uM after 48 hrs; format: functional
[14] = tested on: Plasmodium falciparum; test: Antimalarial activity against ring stage artemisinin-sensitive Plasmodium falciparum F32-TEM assessed as time taken for recrudescence by measuring parasitemia at 18 uM after 48 hrs; format: functional
[15] = tested on: Plasmodium falciparum; test: Antimalarial activity against ring stage artemisinin-resistant Plasmodium falciparum F32-ART5 assessed as time taken for recrudescence by measuring parasitemia at 18 uM after 48 hrs; format: functional
[16] = tested on: Plasmodium falciparum; test: Antimalarial activity against ring stage artemisinin-resistant Plasmodium falciparum F32-ART5 assessed as time taken for recrudescence by measuring parasitemia at 1 uM after 48 hrs; format: functional
[17] = tested on: Plasmodium falciparum; test: Antimalarial activity against ring stage artemisinin-resistant Plasmodium falciparum F32-ART5 assessed as time taken for recrudescence by measuring parasitemia pretreated with dihydroartemisinin for 6 hrs followed by treated at 200 nM for 48 hrs by Quiescent-stage Survival Assay; format: functional

Structure (SMILES)	Time [1]	Ratio CC50/IC50 [2]	Time [3] [days]	pIC50 [4]	CC50 [5] [nM]	Time [6] [days]	Time [7] [days]	Time [8] [days]	Time [9] [days]	other results
Cc1[nH]c(C)c(-c2ccc(Oc3ccc(OC(F)(F)F)cc3)cc2)c(=O)c1Cl	3 days	190	2	7.38	8000	8	–	–	–	–
Cl.O=C(CCCC(=O)O[C@H](c1cc(C(F)(F)F)nc2c(C(F)(F)F)cccc12)[C@@H]1CCCCN1)OC1=C([C@H]2CC[C@H](c3ccc(Cl)cc3)CC2)C(=O)c2ccccc2C1=O	–	4545	–	8.96	5000	–	14	0	–	–
O=C(CCCCCCC(=O)Oc1cc(Cl)ccc1Oc1ccc(Cl)cc1Cl)OC1=C([C@H]2CC[C@H](c3ccc(Cl)cc3)CC2)C(=O)c2ccccc2C1=O	4 days	10000	9	9.22	6000	12	–	–	10	–
Cc1nc(C)c(-c2ccc(Oc3ccc(OC(F)(F)F)cc3)cc2)c(OC(=O)CCCCCCC(=O)Oc2cc(Cl)ccc2Oc2ccc(Cl)cc2Cl)c1Cl	0.6 days	>710	3	6.77	> 120000	4	–	–	–	Time [10]: 2 days; Time [11]: 3 days; Time [12]: 1 days
Cl.O=C(CCC(=O)O[C@H](c1cc(C(F)(F)F)nc2c(C(F)(F)F)cccc12)[C@@H]1CCCCN1)OC1=C([C@H]2CC[C@H](c3ccc(Cl)cc3)CC2)C(=O)c2ccccc2C1=O	–	6660	–	9.22	4000	–	14	0	–	–
O[C@@H](c1cc(C(F)(F)F)nc2c(C(F)(F)F)cccc12)[C@H]1CCCCN1 [(S,R)-MEFLOQUINE]	–	241	–	7.06	21000	–	>30	–	–	–
C[C@@H]1CC[C@H]2[C@@H](C)C(=O)O[C@@H]3O[C@@]4(C)CC[C@@H]1[C@]32OO4 [ARTEMISININ]	–	–	–	7.74	–	–	–	–	–	Time [13]: 12.5 days; Time [14]: 22 days; Time [15]: 9 days
O=C1C(O)=C([C@H]2CC[C@H](c3ccc(Cl)cc3)CC2)C(=O)c2ccccc21 [ATOVAQUONE]	<=1 day	257	21	8.68	500	23	14	3	18	Time [16]: 11 days
CCN(CC)CCCC(C)Nc1ccnc2cc(Cl)ccc12 (stereo unspecified) [CHLOROQUINE]	–	–	–	–	–	–	–	–	–	Time [17]: 8 days
Oc1cc(Cl)ccc1Oc1ccc(Cl)cc1Cl [TRICLOSAN]	–	5	5	–	25000	6	–	–	7	–
